The source of these data is US10821115B2, “Compounds that inhibit Mcl-1 protein” (priority 2017, dated 2020).

Assay [1] deals with recombinant human Mcl-1 (residues 171-327) / Bim interaction (Homo sapiens (Human), UniProt Q07820). The experiment in a line: biochemical. Type of assay: binding. The note with it: read-out: Mcl-1 HTRF IC50. Background: Time-resolved FRET reads energy transfer from a long-lived donor to a nearby acceptor.
In assay [2] the test system is human multiple myeloma cell line, OPM-2. Nature of the assay: Cell viability assay (OPM-2 10 FBS), CellTiter-Glo. The format is cell-based. Put shortly: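 Serially diluted test compounds are incubated 16 h with cells (3000/well) in RPMI 1640 supplemented with 10% FBS. Viability is then measured by luminescence and IC50 calculated by 4-parameter logistic fit.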
In general terms: ATP-based viability assays read luminescence as a measure of living cells.

The mark [3] stands for this setting: TR-FRET, Mcl-1(171-327) / biotin-Bim (51-76).
Where [4] appears, read: read-out: OPM-2 10% FBS IC50 IP, OPM-2 cells, 10% FBS, 16 h, CellTiter-Glo.
The mark [5] stands for this setting: Homo sapiens, OPM-2, 16 h, read-out: OPM-2 10% FBS IC50 IP, OPM-2 cells, 10% FBS, 16 h, CellTiter-Glo.
Where [6] appears, read: 0.1 nM Mcl-1(171-327), 0.05 nM biotin-Bim (51-76).
[7] abbreviates: Homo sapiens, OPM-2, 16 h, read-out: OPM-2 10% FBS IC50 IP, OPM-2 cells, 10% FBS, 16 h incubation.

Where two headings read alike, the source gives them in different places.

As usually defined, the IC50 is the concentration needed to halve the response being measured.

recombinant human Mcl-1 (residues 171-327) / Bim interaction, sequence (Q07820 171-327): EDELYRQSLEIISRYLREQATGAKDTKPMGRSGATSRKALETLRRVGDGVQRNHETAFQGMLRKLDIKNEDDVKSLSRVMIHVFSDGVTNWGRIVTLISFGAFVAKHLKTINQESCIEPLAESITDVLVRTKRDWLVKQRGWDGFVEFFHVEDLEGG

Take `C[C@@H]1[C@@H](C)CCC[C@@](O)(Cc2ccncn2)[C@@H]2CC[C@H]2CN2C[C@@]3(CCCc4cc(Cl)ccc43)COc3ccc(cc32)C(=O)NS1(=O)=O` [Example 100114, (1S,3′R,6′R,7′R,11′S,12′R)-6-chloro-7′-hydroxy-11′,12′-dimethyl-7′-(4-pyrimidinylmethyl)-3,4-dihydro-2H,15′H-spiro[naphthalene-1,22′-[20]oxa[13]thia[1,14]diazatetracyclo [14.7.2.0~3,6~.0~19,24~]pentacosa[16,18,24]trien]-15′-one 13′,13′-dioxide]: the half-inhibitory concentration (IC50) was found to be 1.05 nM in assay [1] (setting [3]) and 491 nM in assay [2] (setting [4]).

In the case of `C[C@@H]1[C@@H](C)C/C=C/[C@@](O)(C#CCCN2CCOCC2)[C@@H]2CC[C@H]2CN2C[C@@]3(CCCc4cc(Cl)ccc43)COc3ccc(cc32)C(=O)NS1(=O)=O` [Example 100327, (1S,3′R,6′R,7′S,8′E,11′S,12′R)-6-chloro-7′-hydroxy-11′,12′-dimethyl-7′-(4-(4-morpholinyl)-1-butyn-1-yl)-3,4-dihydro-2H,15′H-spiro[naphthalene-1,22′-[20]oxa[13]thia[1,14]diazatetracyclo [14.7.2.0~3,6~.0~19,24~]pentacosa[8,16,18,24]tetraen]-15′-one 13′,13′-dioxide], the half-maximal inhibitory concentration (IC50) came to 0.295 nM in assay [1] (setting [3]) and 550 nM in assay [2] (setting [4]).

`Cc1nccnc1C[C@@]1(O)/C=C/C[C@H](C)[C@@H](C)S(=O)(=O)NC(=O)c2ccc3c(c2)N(C[C@@H]2CC[C@H]21)C[C@@]1(CCCc2cc(Cl)ccc21)CO3` [Example 100526, (1S,3′R,6′R,7′R,8′E,11′S,12′R)-6-chloro-7′-hydroxy-11′,12′-dimethyl-7′-((3-methyl-2-pyrazinyl)methyl)-3,4-dihydro-2H,15′H-spiro[naphthalene-1,22′-[20]oxa[13]thia[1,14]diazatetracyclo [14.7.2.0~3,6~.0~19,24~]pentacosa[8,16,18,24]tetraen]-15′-one 13′,13′-dioxide]: the IC50 in assay [1] (setting [3]) amounted to 0.387 nM; in assay [2] (setting [5]), 826 nM.

On to `COC[C@@H]1[C@@H](C)C/C=C/[C@](CN2CCN(C(C)C)CC2)(OC)[C@@H]2CC[C@H]2CN2C[C@@]3(CCCc4cc(Cl)ccc43)COc3ccc(cc32)C(=O)NS1(=O)=O` [Example 173], for which the half-inhibitory concentration (IC50) in assay [1] (setting [6]) was determined as 0.173 nM; in assay [2] (setting [7]) it was 323 nM.

On to `CO[C@]1(CC(=O)C(C)C)/C=C/C[C@H](C)[C@@H](C)S(=O)(=O)NC(=O)c2ccc3c(c2)N(C[C@@H]2CC[C@H]21)C[C@@]1(CCCc2cc(Cl)ccc21)CO3` [Example 100363, (1S,3′R,6′R,7′R,8′E,11′S,12′R)-6-chloro-7′-methoxy-11′,12′-dimethyl-7′-(3-methyl-2-oxobutyl)-3,4-dihydro-2H,15′H-spiro[naphthalene-1,22′-[20]oxa[13]thia[1,14]diazatetracyclo [14.7.2.0~3,6~.0~19,24~]pentacosa[8,16,18,24]tetraen]-15′-one 13′,13′-dioxide], for which the results for the IC50 in assay [1] and in assay [2] (setting [5]) were 1.38 nM and 3810 nM, respectively.

`CC(C)CO[C@]1(CN2CCN3CCCC[C@@H]3C2)/C=C/C[C@H](C)[C@@H](C)S(=O)(=O)NC(=O)c2ccc3c(c2)N(C[C@@H]2CC[C@H]21)C[C@@]1(CCCc2cc(Cl)ccc21)CO3` [Example 354, (1S,3′R,6′R,7′R,8′E,11′S,12′R)-6-chloro-11′,12′-dimethyl-7′-(2-methylpropoxy)-7′-((9aR)-octahydro-2H-pyrido[1,2-a]pyrazin-2-ylmethyl)-3,4-dihydro-2H,15′H-spiro[naphthalene-1,22′-[20]oxa[13]thia[1,14]diazatetracyclo [14.7.2.0~3,6~.0~19,24~]pentacosa[8,16,18,24]tetraen]-15′-one 13′,13′-dioxide]: the IC50 in assay [1] (setting [6]) is 0.214 nM; in assay [2] (setting [7]) it was 450 nM.

Take `CO[C@@]1(C[C@@H](O)C(C)C)/C=C/C[C@H](C)[C@@H](C)S(=O)(=O)NC(=O)c2ccc3c(c2)N(C[C@@H]2CC[C@H]21)C[C@@]1(CCCc2cc(Cl)ccc21)CO3` (single isomer, unassigned) [Example 100366]: the half-maximal inhibitory concentration (IC50) in assay [1] (setting [3]) stood at 0.198 nM; in assay [2] (setting [4]) it was 168 nM.

As to `CO[C@]1(C)CCC[C@H](C)[C@@H](C)S(=O)(=O)NC(=O)c2ccc3c(c2)N(C[C@@H]2CC[C@H]21)C[C@@]1(CCCc2cc(Cl)ccc21)CO3` (single isomer, unassigned) [Example 100212], the results for the half-inhibitory concentration (IC50) in assay [1] (setting [3]) and in assay [2] (setting [4]) were 0.901 nM and 1620 nM, respectively.

With `CCN(CC)C(=O)C[C@]1(O)/C=C/C[C@H](C)[C@@H](C)S(=O)(=O)NC(=O)c2ccc3c(c2)N(C[C@@H]2CC[C@H]21)C[C@@]1(CCCc2cc(Cl)ccc21)CO3` [Example 100083, 2-((1S,3′R,6′R,7′S,8′E,11′S,12′R)-6-chloro-7′-hydroxy-11′,12′-dimethyl-13′,13′-dioxido-15′-oxo-3,4-dihydro-2H-spiro[naphthalene-1,22′-[20]oxa[13]thia[1,14]diazatetracyclo [14.7.2.0~3,6~.0~19,24~]pentacosa[8,16,18,24]tetraen]-7′-yl)-N,N-diethylacetamide], the IC50 in assay [1] (setting [3]) stood at 0.179 nM; in assay [2] (setting [5]), 123 nM.

Turning to `CO[C@@]1(CN2CCN3CCC(F)(F)C[C@H]3C2)/C=C/C[C@H](C)[C@@H](C)S(=O)(=O)NC(=O)c2ccc3c(c2)N(C[C@@H]2CC[C@H]21)C[C@@]1(CCCc2cc(Cl)ccc21)CO3` (single isomer, unassigned) [Example 289], the IC50 amounted to 0.214 nM in assay [1] (setting [6]) and 131 nM in assay [2] (read-out: OPM-2 10% FBS IC50 IP, OPM-2 cells, 10% FBS, 16 h incubation).

Take `CO[C@@]1(CC(=O)N2CCN(C)C[C@H]2C)/C=C/C[C@H](C)[C@@H](C)S(=O)(=O)NC(=O)c2ccc3c(c2)N(C[C@@H]2CC[C@H]21)C[C@@]1(CCCc2cc(Cl)ccc21)CO3` [Example 100417, (1S,3′R,6′R,7′S,8′E,11′S,12′R)-6-chloro-7′-(2-((2R)-2,4-dimethyl-1-piperazinyl)-2-oxoethyl)-7′-methoxy-11′,12′-dimethyl-3,4-dihydro-2H,15′H-spiro[naphthalene-1,22′-[20]oxa[13]thia[1,14]diazatetracyclo [14.7.2.0~3,6~.0~19,24~]pentacosa[8,16,18,24]tetraen]-15′-one 13′,13′-dioxide]: the concentration for half-maximal inhibition (IC50) in assay [1] (setting [3]) turned out to be 0.345 nM; in assay [2] (setting [5]), 379 nM.

For the compound `C[C@@H]1[C@@H](C)C/C=C/[C@@](O)(CC(=O)N2CCCC2)[C@@H]2CC[C@H]2CN2C[C@@]3(CCCc4cc(Cl)ccc43)COc3ccc(cc32)C(=O)NS1(=O)=O` [Example 100252, (1S,3′R,6′R,7′S,8′E,11′S,12′R)-6-chloro-7′-hydroxy-11′,12′-dimethyl-7′-(2-oxo-2-(1-pyrrolidinyl)ethyl)-3,4-dihydro-2H,15′H-spiro[naphthalene-1,22′-[20]oxa[13]thia[1,14]diazatetracyclo [14.7.2.0~3,6~.0~19,24~]pentacosa[8,16,18,24]tetraen]-15′-one 13′,13′-dioxide], the IC50 in assay [1] (setting [3]) stood at 0.112 nM; in assay [2] (setting [4]), 77 nM.

Take `C[C@@H]1[C@@H](C)CCC[C@](O)(CC(=O)N2CCOCC2)[C@@H]2CC[C@H]2CN2C[C@@]3(CCCc4cc(Cl)ccc43)COc3ccc(cc32)C(=O)NS1(=O)=O` (single isomer, unassigned) [Example 100087]: the IC50 in assay [1] (setting [3]) was determined as 0.864 nM; in assay [2] (setting [5]) it was 187 nM.

Consider `C[C@@H]1[C@@H](C)C/C=C/[C@@](O)(CC(=O)N2CCN3CCOC[C@@H]3C2)[C@@H]2CC[C@H]2CN2C[C@@]3(CCCc4cc(Cl)ccc43)COc3ccc(cc32)C(=O)NS1(=O)=O` [Example 100305, (1S,3′R,6′R,7′S,8′E,11′S,12′R)-6-chloro-7′-(2-((9aS)-hexahydropyrazino[2,1-c][1,4]oxazin-8(1H)-yl)-2-oxoethyl)-7′-hydroxy-11′,12′-dimethyl-3,4-dihydro-2H,15′H-spiro[naphthalene-1,22′-[20]oxa[13]thia[1,14]diazatetracyclo [14.7.2.0~3,6~.0~19,24~]pentacosa[8,16,18,24]tetraen]-15′-one 13′,13′-dioxide], for which the IC50 came to 0.473 nM in assay [1] (setting [3]) and 1140 nM in assay [2] (setting [5]).

`CO[C@@]1(CN2CCN3C[C@@H](C)OC[C@@H]3C2)/C=C/C[C@H](C)[C@@H](C)S(=O)(=O)NC(=O)c2ccc3c(c2)N(C[C@@H]2CC[C@H]21)C[C@@]1(CCCc2cc(Cl)ccc21)CO3` [Example 147, (1S,3′R,6′R,7′S,8′E,11′S,12′R)-6-chloro-7′-methoxy-11′,12′-dimethyl-7′-(((3R,9aS)-3-methylhexahydropyrazino[2,1-c][1,4]oxazin-8(1H)-yl)methyl)-3,4-dihydro-2H,15′H-spiro[naphthalene-1,22′-[20]oxa[13]thia[1,14]diazatetracyclo [14.7.2.0~3,6~.0~19,24~]pentacosa[8,16,18,24]tetraen]-15′-one 13′,13′-dioxide]: the IC50 in assay [1] (setting [6]) is 0.376 nM; in assay [2] (setting [7]) it was 157 nM.

`COC(=O)[C@]1(O)/C=C/C[C@H](C)[C@@H](C)S(=O)(=O)NC(=O)c2ccc3c(c2)N(C[C@@H]2CC[C@H]21)C[C@@]1(CCCc2cc(Cl)ccc21)CO3` [Example 100061, methyl (1S,3′R,6′R,7′S,8′E,11′S,12′R)-6-chloro-7′-hydroxy-11′,12′-dimethyl-15′-oxo-3,4-dihydro-2H-spiro[naphthalene-1,22′-[20]oxa[13]thia[1,14]diazatetracyclo [14.7.2.0~3,6~.0~19,24~]pentacosa[8,16,18,24]tetraene]-7′-carboxylate 13′,13′-dioxide]: the IC50 in assay [1] (setting [3]) was determined as 0.78 nM; in assay [2] (setting [5]) it was 529 nM.
